In the supplement of paper PMC10307832:

How the values were obtained:
Test in all cases: relative viability (nuclei count vs DMSO), 5 days (fraction); higher = more cells survive
NCI-H460 = tested on: NCI-H460
Summary of the method: (§1)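 Lung cancer cell lines in 1536-well plates got either a single drug or a fixed anchor-drug dose together with five library-drug doses (not always all listed) in √10 steps, by pin tool, on the day after seeding. Nuclei were counted after 5 days, and relative viability is the treated-to-vehicle ratio of nuclei counts. Values are medians of duplicate plates.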

H3255 = tested on: H3255
Summary of the method: as §1

201T = tested on: 201T
Summary of the method: as §1

NCI-H1650 = tested on: NCI-H1650
Summary of the method: as §1

NCI-H2087 = tested on: NCI-H2087
Summary of the method: as §1

NCI-H358 = tested on: NCI-H358
Summary of the method: as §1

NCI-H650 = tested on: NCI-H650
Summary of the method: as §1

SK-LU-1 = tested on: SK-LU-1
Summary of the method: as §1

HARA = tested on: HARA
Summary of the method: as §1

NCI-H23 = tested on: NCI-H23
Summary of the method: as §1

HCC-366 = tested on: HCC-366
Summary of the method: as §1

NCI-H1793 = tested on: NCI-H1793
Summary of the method: as §1

CCNC(=O)c1noc(-c2cc(C(C)C)c(O)cc2O)c1-c1ccc(CN2CCOCC2)cc1 [Luminespib] + O=C(c1cc(Cc2n[nH]c(=O)c3ccccc23)ccc1F)N1CCN(C(=O)C2CC2)CC1 [Olaparib] (partner 8 µM)
relative viability (NCI-H460; first compound 0.02 µM): 0.454
relative viability (NCI-H460; first compound 0.06325 µM): 0.0514
relative viability (NCI-H460; first compound 0.2 µM): 0.0343
relative viability (H3255; first compound 0.002 µM): 0.59
relative viability (H3255; first compound 0.006325 µM): 0.521
relative viability (H3255; first compound 0.02 µM): 0.563
relative viability (H3255; first compound 0.06325 µM): 0.337
relative viability (H3255; first compound 0.2 µM): 0.253
relative viability (201T; first compound 0.002 µM): 0.883
relative viability (201T; first compound 0.006325 µM): 0.829
relative viability (201T; first compound 0.02 µM): 0.87
relative viability (201T; first compound 0.06325 µM): 0.803
relative viability (201T; first compound 0.2 µM): 0.784
relative viability (NCI-H1650; first compound 0.002 µM): 0.852
relative viability (NCI-H1650; first compound 0.006325 µM): 0.786
relative viability (NCI-H1650; first compound 0.02 µM): 0.686
relative viability (NCI-H1650; first compound 0.06325 µM): 0.142
relative viability (NCI-H1650; first compound 0.2 µM): 0.137
relative viability (NCI-H2087; first compound 0.002 µM): 0.639
relative viability (NCI-H2087; first compound 0.006325 µM): 0.518
relative viability (NCI-H2087; first compound 0.02 µM): 0.559
relative viability (NCI-H2087; first compound 0.06325 µM): 0.116
relative viability (NCI-H2087; first compound 0.2 µM): 0.113
relative viability (NCI-H358; first compound 0.002 µM): 0.637
relative viability (NCI-H358; first compound 0.006325 µM): 0.655
relative viability (NCI-H358; first compound 0.02 µM): 0.577
relative viability (NCI-H358; first compound 0.06325 µM): 0.0817
relative viability (NCI-H358; first compound 0.2 µM): 0.0712
relative viability (NCI-H650; first compound 0.002 µM): 0.452
relative viability (NCI-H650; first compound 0.006325 µM): 0.338
relative viability (NCI-H650; first compound 0.02 µM): 0.34
relative viability (NCI-H650; first compound 0.06325 µM): 0.061
relative viability (NCI-H650; first compound 0.2 µM): 0.0723
relative viability (SK-LU-1; first compound 0.002 µM): 0.538
relative viability (SK-LU-1; first compound 0.006325 µM): 0.4
relative viability (SK-LU-1; first compound 0.02 µM): 0.475
relative viability (SK-LU-1; first compound 0.06325 µM): 0.187
relative viability (SK-LU-1; first compound 0.2 µM): 0.179
relative viability (HARA; first compound 0.002 µM): 0.425
relative viability (HARA; first compound 0.006325 µM): 0.814
relative viability (HARA; first compound 0.02 µM): 0.997
relative viability (HARA; first compound 0.06325 µM): 0.146
relative viability (HARA; first compound 0.2 µM): 0.102
relative viability (NCI-H23; first compound 0.002 µM): 0.36
relative viability (NCI-H23; first compound 0.006325 µM): 0.333
relative viability (NCI-H23; first compound 0.02 µM): 0.346
relative viability (NCI-H23; first compound 0.06325 µM): 0.102
relative viability (NCI-H23; first compound 0.2 µM): 0.121
relative viability (HCC-366; first compound 0.002 µM): 0.401
relative viability (HCC-366; first compound 0.006325 µM): 0.345
relative viability (HCC-366; first compound 0.02 µM): 0.424
relative viability (HCC-366; first compound 0.06325 µM): 0.0205
relative viability (HCC-366; first compound 0.2 µM): 0.0254
relative viability (NCI-H1793; first compound 0.002 µM): 0.999
relative viability (NCI-H1793; first compound 0.006325 µM): 0.975
relative viability (NCI-H1793; first compound 0.02 µM): 0.7
relative viability (NCI-H1793; first compound 0.06325 µM): 0.117
relative viability (NCI-H1793; first compound 0.2 µM): 0.167
